Laboratory results as given in a melting point compilation (Tetko et al.; mined from patent text by program, amines drawn as free bases though some values may be those of a salt).

melting point | Compound
179 °C | Cn1ncnc1COc1nn2c(-c3c(F)cccc3F)nncc2c1-c1ccccc1
> 300 °C | Cc1cc2n[nH]c(=O)n2nc1-c1cccc([N+](=O)[O-])c1
111 to 112 °C | CC(Oc1ccc(Oc2ccccc2)cc1)(C(=O)O)C(F)(F)F (stereo not given)
190 to 191 °C | COc1cc(C(=O)O)ccc1Cc1cn(C)c2ccc(C(=O)NCCC(C)C)cc12
144 to 146 °C | COc1cn2nc(OCCCN3CCN(C(c4ccccc4)c4ccccc4)CC3)ccc2n1
174 °C | O=c1c(CCCc2cccnc2)cc2cccnc2n1-c1ccc2nsnc2c1
176 to 177 °C | COCCCOc1cc(N(C)S(=O)(=O)c2ccccn2)c2[nH]c(C3=NCC(CN4CCS(=O)CC4)S3)cc2c1 (stereo not given)
56 °C | COc1ccc(CNc2ncc3c(n2)N(c2ccccc2)C(=O)N(c2c(Cl)cccc2Cl)C3)cc1
125 to 126 °C | CN(CCc1c[nH]c2ccccc12)C(=O)CCCC(=O)O
107 to 110 °C | CCOP(=O)(CCCOc1ccc(C(=O)O)cc1)OCC
212 to 214 °C | NCc1cccc(Nc2n[nH]c3ncnc(Nc4cccc(Cl)c4)c23)c1
187 to 189 °C | Cc1cccc(S(=O)(=O)NC(=O)NCCCCCCNC(=O)NS(=O)(=O)c2cccc(Cl)c2)c1
272 to 273 °C | O=C(O)c1cc2c3ccccc3[nH]c(=S)n2n1
72 to 73 °C | O=C(O)C(=O)c1ccc(OCCc2ccccc2)cc1
178 to 180 °C | Cc1c(Br)cccc1N1CCn2c(cc3ccccc32)C1=O
> 250 °C | Cn1c2c(cnc3c(N)cccc32)c(=O)n1C(=O)OC(C)(C)C
157 °C | CC#CCOc1ccc(S(=O)C(C(=O)NO)c2ccc3ccccc3c2)cc1 (stereo not given)
57 to 59 °C | c1ccc(SCCCSc2nnnn2-c2ccccc2)cc1
207 to 208 °C | Nc1cc(Br)cc(OCc2ccccc2)c1NC(=O)C1CC1
98 to 99 °C | CCOC(=O)c1cnc2nc(SCc3ccccc3)nn2c1C
208 to 210 °C | O=C1NC(=O)C(=Cc2ccc(N3CCC(NC[C@H](O)COc4ccccc4)CC3)cc2)S1
230 to 232 °C | O=C(O)Cc1c(C(=O)c2ccc(-c3ccco3)cc2)[nH]c2cc(Cl)ccc12
125 °C | CC(C)N(C(=O)Cn1cncn1)c1ccccc1

melting point | Compound
219 to 220 °C | COc1ccc(S(=O)(=O)N2CCc3cccc(NC(=O)c4ccncc4)c32)cc1
161 to 164 °C | CS(=O)(=O)c1ccc(-c2cnn(CC(F)(F)F)c(=O)c2Oc2ccc(F)cc2)cc1
100 to 101 °C | COCCOc1cc(C)c(O)c2ccccc12
> 250 °C | COc1cc(-c2nc(Nc3ccc(C)cc3)c3ccccc3n2)cc(OC)c1OC
172 to 174 °C | CCCC(Cc1ccc(Cl)cc1)C1(S(=O)(=O)c2ccc(OC)cc2)SC(=O)NC1=O (stereo not given)
170 to 171 °C | O=C(CCN1C(=O)CSC1=S)Nc1ccccc1[N+](=O)[O-]
151 to 153 °C | CC(=O)OCCC1CCCN(C(=O)c2ccc(NC(=O)c3ccccc3Cl)nc2)c2ccc(Cl)cc21 (stereo not given)
125 to 126 °C | O=C(Oc1ccccc1)N1C(=O)[C@H](O)[C@@H]1c1ccccc1
91 to 93 °C | Cc1cccc(-c2[nH]c(C(C)C)nc2-c2cccc(-c3ccc(C(F)(F)F)cc3)c2)n1
317 to 318 °C | CCCn1nc2c(N)nc3cnccc3c2c1CCNC(=O)c1ccc(F)cc1
192 to 195 °C | Cc1cc2nn(C)c(=O)n2nc1-c1cccc(N)c1
103 to 107 °C | O=C(Cn1c(-c2ccc(F)cc2)ncc(NC(=O)OCc2ccccc2)c1=O)NC(Cc1ccccc1)C(=O)C(F)(F)F (stereo not given)
239 to 241 °C | NC(=O)N1C(=O)/C(=C(\O)c2cccs2)c2cc(F)c(Cl)cc21
146 °C | O=c1nc(-c2cccc(CCCO)n2)sc2ccccc12
213 to 216 °C | C#Cc1cccc(Nc2ncnc3ccc(NC(=O)c4ccc(C(=O)Nc5ccccc5N)nc4)cc23)c1
123 to 125 °C | Cc1ccc(-c2c(C(=O)NCc3cc(C(F)(F)F)cc(C(F)(F)F)c3)n(CCO)c(=O)c3ncccc23)cc1
252 °C | COc1cc2nc(COc3ccc(CC4SC(=O)NC4=O)cc3)n(C)c(=O)c2cc1OC (stereo not given)
152 to 153 °C | Cc1oc(-c2ccco2)nc1COc1ccc(Cn2cc(CCC(=O)O)c(-c3ccccc3)n2)cc1
175 to 176 °C | CCN(C(=O)c1ccccc1C(=O)c1ccc(Cl)cc1)C(C)(C)CNS(=O)(=O)c1ccc(C)cc1
154 to 156 °C | Oc1ccccc1-c1nc(-c2ccccc2O)n(CC(F)(F)F)n1
65 to 66 °C | CCCCCc1c(C(C)C)nc(C(C)C)c(CO)c1-c1cccc(OC)c1
135 to 137 °C | CCOC(=O)c1cc(Cl)n2nc(-c3ccccc3)cc2n1
124 to 126 °C | CN(C)c1ccc(/C=C/c2ccccc2F)cc1

Second part, the compound before the results:

Compound | melting point
CCCOCc1nc(C(C)(C)O)c(C(=O)OCCC)[nH]1 | 72 to 73 °C
CNc1ncc([N+](=O)[O-])c(Cl)n1 | 172 to 173 °C
O=C1c2cc(Cl)ccc2OC(CCCCl)N1O (stereo not given) | 70 to 75 °C
Cc1cc(CCCCCOc2cc(Cl)c(-c3nnc(C)o3)c(Cl)c2)on1 | 71 to 72 °C
Cc1nnc(SCC(=O)C23CC4CC(CC(C4)C2)C3)n1Cc1ccc(Cl)cc1 | 158 to 159 °C
CCOc1cc(CC)ccc1C1CCN(CCCCNC(=O)c2ccc(NC(=O)c3ccc(Cl)cc3)cc2)CC1 | 250 °C
CCOC(=O)c1c(C)nc(OCC)c2nnn(CC)c12 | 56 to 58 °C
C=CCOc1ccccc1OCC(O)CN1CCC(N2CCCNC2=O)CC1 (stereo not given) | 122 to 125 °C
CN1CCN(S(=O)(=O)CCCOc2ccc3ncnn3n2)CC1 | 140 to 141 °C
CC(C)(C)OC(=O)NCc1cccc2c1C(=O)N(C1CCC(=O)NC1=O)C2=O (stereo not given) | 180 to 182 °C
COC(=O)Nc1nc2cc(SCC3CC3)ccc2[nH]1 | 228 to 231 °C
COC(=O)C(Cl)Cc1cc(F)c(-n2c(=O)cc(C(F)(F)F)n(C)c2=O)cc1[N+](=O)[O-] (stereo not given) | 60 to 65 °C
CCCCNC(=O)[C@@H](C[C@H](O)[C@@H](N)CC1CCCC1)C(C)C | 93 to 94 °C
CC(C)N=C(N)Nc1ccnc(OCCCO)n1 | 181 to 183 °C
COC(=O)n1nc(-c2cc(Cl)c(C)c(Cl)c2)ccc1=O | 203 to 206 °C
CC1(Cc2ccccc2)CCNC1=O (stereo not given) | 89 to 90 °C
CC(=C(F)F)c1cn(-c2c(Cl)cc(C(F)(F)F)cc2Cl)nc1C#N | 66 to 68 °C
N#CC1(c2ccccc2)CCC(O)CC1 (stereo not given) | 103 to 111 °C
Oc1ccc2c(C3CCCCC3)nsc2c1 | 190 °C
N#Cc1[nH]c(Br)c([N+](=O)[O-])c1Br | 170 to 175 °C
COc1cc2[nH]c(=O)c3c(c2cc1OC)CCN(CCN(C)C)C3 | 160 to 164 °C
CCN(CC)CCCNc1nc(Cl)nc(NCCCN(CC)CC)n1 | 119 °C
O=C1CCc2cc(Br)ccc2O1 | 103 to 105 °C
COc1ccc(-c2c(Cl)c(CN3C(=O)CCC3=O)nc3sc4c(c23)CC(C)(C)C(=O)C4(F)F)cc1 | 200 to 202 °C
Cc1noc(NC(=O)N2CCN(c3ccnc(-c4ccc(F)cc4F)c3)CC2)c1C | 234 to 235 °C
NC(CC(=O)O)C(=O)N1C(=O)c2ccc(C(=O)O)cc2C1=O (stereo not given) | 242 to 243 °C
C=CCONC(=O)COc1cccc2c1c(C(=O)C(N)=O)c(CC)n2Cc1ccccc1 | 175 to 177 °C

Compound | melting point
COC(=O)c1cc(C)c(OCCNC(=O)C2Cc3ccccc3N2S(=O)(=O)c2ccc(-c3ccc(F)cc3)cc2)c(C)c1 (stereo not given) | 91 °C
O=C(NCC12CC3CC(CC(C3)C1)C2)c1cc([N+](=O)[O-])ccc1Cl | 178 °C
c1ccc2c(c1)nc1n2CCCC1 | 104 to 106 °C
CCCCC[C@H](CC(=O)OC(C)(C)C)C(=O)N1C(=O)OC[C@@H]1C(C)C | 51 to 53 °C
Cc1cnc(NC2CCC(CCN3CCN(c4ccccc4)CC3)CC2)nc1 (stereo not given) | 190 °C
Cc1c(NCC(C)(C)NC(=O)OC(C)(C)C)c([N+](=O)[O-])c2nnnn2c1C | 153 to 155 °C
N[C@H]1CCN(c2cc3c(cc2F)c(=O)c(C(=O)O)cn3-c2c[nH]nn2)C1 | 300 °C
COC1=CC(=O)c2c(C)cccc2C1=O | 138 to 140 °C
CCCCCCCCCCCCCCCCCCS(=O)(=O)c1ccc(C)cc1 | 79 to 80 °C
O=C(NN1CCOCC1)c1ccc(O)c(Br)c1 | 216 to 218 °C
C/C(=C\c1ccc(O)cc1)c1ccc2c(c1)SC(C)(C)S2 | 123 to 124 °C
CC(C)COc1ccc2c(c1)CCC1C2=CCC2(C)C(=O)CCC12 (stereo not given) | 107 to 108 °C
COc1nc(I)cc(C(O)C(C)(C)C)c1C (stereo not given) | 64 to 65 °C
CCOC(=O)C(c1c(F)cc(C#N)cc1F)c1cc(C)c(C(=O)c2ccc(Cl)cc2)n1C (stereo not given) | 155 to 156 °C
NC(CCNc1ccc(C(O)(C(F)(F)F)C(F)(F)F)cc1)c1ccc(F)cc1 (stereo not given) | 136 to 137 °C
CC1(C)C(Cl)(Cl)C1(Cl)C(=O)O (stereo not given) | 148 to 150 °C
Cc1cc(NS(=O)(=O)c2cccs2)c2[nH]c(C3=NCCS3)cc2c1C | 201 to 202 °C
CCC(=O)NCCC1CCc2ccc3c(c21)OCO3 (stereo not given) | 102 to 104 °C
CCCC1CCC(C#Cc2ccc(OCC)c(F)c2F)CC1 (stereo not given) | 64 °C
N#Cc1nc(Cl)nc(N2CCS(=O)CC2)c1Cl | 145 to 147 °C
CN(C)C1(c2ccc(F)cc2)CCC(N2CCC(c3c[nH]c4ccccc34)C2)CC1 (stereo not given) | 248 to 250 °C
CN(C)Cc1nnc2n1-c1ccc(Cl)cc1C(c1ccccc1)=[N+]([O-])C2 | 217 to 219 °C
CCc1c[nH]c(=O)c(N)c1Sc1cc(C)cc(C)c1 | 208 to 209 °C
CC(C)(C)OC(=O)N1CCNC(=O)C1Cc1ccc(F)cc1 (stereo not given) | 145 to 147 °C
CCn1c(C(F)(F)F)nn(C2=CCC(F)(C(N)=S)C(N)=C2)c1=O (stereo not given) | 161 °C
CCCCCCCCCCN=C=O | 110 to 112 °C
CN(C)C(=O)c1ccc(NS(C)(=O)=O)c(Oc2ccc(F)cc2F)c1 | 165 to 167 °C
